From PubChem BioAssay (NCI)
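Growth conditions: 96-well plates. Treatment: test compound, 48 hours, 5 concentrations. Analysis: linear interpolation between bracketing concentrations; unreached endpoints set to highest concentration. At the GI50, growth is halved. TGI denotes the concentration required for complete inhibition of growth.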

Legend:
Test in all cases: NCI anticancer screen, dose series, 48 h
NCI-H460 lung = test system: NCI-H460 lung
TK-10 renal = test system: TK-10 renal
HL-60(TB) leukemia = test system: HL-60(TB) leukemia
COLO 205 colon = test system: COLO 205 colon
ACHN renal = test system: ACHN renal
A498 renal = test system: A498 renal
LOX IMVI melanoma = test system: LOX IMVI melanoma
SW-620 colon = test system: SW-620 colon
SF-268 CNS = test system: SF-268 CNS
T-47D breast = test system: T-47D breast
NCI/ADR-RES ovarian = test system: NCI/ADR-RES ovarian
MDA-MB-231 breast = test system: MDA-MB-231 breast
U251 CNS = test system: U251 CNS
786-0 renal = test system: 786-0 renal
MCF7 breast = test system: MCF7 breast
SNB-19 CNS = test system: SNB-19 CNS
RXF 393 renal = test system: RXF 393 renal
MOLT-4 leukemia = test system: MOLT-4 leukemia
OVCAR-3 ovarian = test system: OVCAR-3 ovarian
SK-OV-3 ovarian = test system: SK-OV-3 ovarian
UO-31 renal = test system: UO-31 renal
PC-3 prostate = test system: PC-3 prostate
M14 melanoma = test system: M14 melanoma
HCT-116 colon = test system: HCT-116 colon
SF-295 CNS = test system: SF-295 CNS
HT29 colon = test system: HT29 colon
CAKI-1 renal = test system: CAKI-1 renal
IGROV1 ovarian = test system: IGROV1 ovarian
RPMI-8226 leukemia = test system: RPMI-8226 leukemia
EKVX NSCLC = test system: EKVX NSCLC
HOP-92 NSCLC = test system: HOP-92 NSCLC
MALME-3M melanoma = test system: MALME-3M melanoma
OVCAR-8 ovarian = test system: OVCAR-8 ovarian
A549 NSCLC = test system: A549 NSCLC
DU-145 prostate = test system: DU-145 prostate
HCC-2998 colon = test system: HCC-2998 colon
NCI-H226 lung = test system: NCI-H226 lung
BT-549 breast = test system: BT-549 breast
HS 578T breast = test system: HS 578T breast
OVCAR-4 ovarian = test system: OVCAR-4 ovarian
HCT-15 colon = test system: HCT-15 colon
KM12 colon = test system: KM12 colon
UACC-62 melanoma = test system: UACC-62 melanoma
MDA-MB-435 = test system: MDA-MB-435
NCI-H522 lung = test system: NCI-H522 lung
NCI-H23 lung = test system: NCI-H23 lung
SF-539 CNS = test system: SF-539 CNS
SK-MEL-28 melanoma = test system: SK-MEL-28 melanoma
SK-MEL-5 melanoma = test system: SK-MEL-5 melanoma
SN12C renal = test system: SN12C renal
OVCAR-5 ovarian = test system: OVCAR-5 ovarian
SR leukemia = test system: SR leukemia
SK-MEL-2 melanoma = test system: SK-MEL-2 melanoma
SNB-75 CNS = test system: SNB-75 CNS

CCN(CC)c1ccc(/C=C\c2cc(C)c3cc(C)ccc3n2)cc1
GI50 (NCI-H460 lung): 3.51 µM | TGI (NCI-H460 lung): 24.5 µM | GI50 (TK-10 renal): 5.11 µM | TGI (TK-10 renal): 36.7 µM | GI50 (HL-60(TB) leukemia): 3.23 µM | TGI (HL-60(TB) leukemia): 7.66 µM | GI50 (COLO 205 colon): 3.67 µM | TGI (COLO 205 colon): 18.5 µM | GI50 (ACHN renal): 6.23 µM | TGI (ACHN renal): > 100 µM | GI50 (A498 renal): 2.19 µM | TGI (A498 renal): 8.33 µM | GI50 (LOX IMVI melanoma): 4.29 µM | TGI (LOX IMVI melanoma): > 100 µM | GI50 (SW-620 colon): 3.52 µM | TGI (SW-620 colon): > 100 µM | GI50 (SF-268 CNS): 6.48 µM | TGI (SF-268 CNS): > 100 µM | GI50 (T-47D breast): 1.11 µM | TGI (T-47D breast): > 100 µM | GI50 (NCI/ADR-RES ovarian): 3.1 µM | TGI (NCI/ADR-RES ovarian): > 100 µM | GI50 (MDA-MB-231 breast): 16.2 µM | TGI (MDA-MB-231 breast): > 100 µM | GI50 (U251 CNS): 5.35 µM | TGI (U251 CNS): > 100 µM | GI50 (786-0 renal): 3.98 µM | TGI (786-0 renal): > 100 µM | GI50 (MCF7 breast): 2.95 µM | TGI (MCF7 breast): > 100 µM | GI50 (SNB-19 CNS): 51.7 µM | TGI (SNB-19 CNS): > 100 µM | GI50 (RXF 393 renal): 3.99 µM | TGI (RXF 393 renal): > 100 µM | GI50 (MOLT-4 leukemia): 6.12 µM | TGI (MOLT-4 leukemia): > 100 µM | GI50 (OVCAR-3 ovarian): 3.24 µM | TGI (OVCAR-3 ovarian): 12.4 µM | GI50 (SK-OV-3 ovarian): 4.63 µM | TGI (SK-OV-3 ovarian): > 100 µM | GI50 (UO-31 renal): 6.97 µM | TGI (UO-31 renal): > 100 µM | GI50 (PC-3 prostate): 3.69 µM | TGI (PC-3 prostate): 81.1 µM | GI50 (M14 melanoma): 3.89 µM | TGI (M14 melanoma): > 100 µM | GI50 (HCT-116 colon): 3.2 µM | TGI (HCT-116 colon): > 100 µM | GI50 (SF-295 CNS): 4.19 µM | TGI (SF-295 CNS): > 100 µM | GI50 (HT29 colon): 2.65 µM | TGI (HT29 colon): 11.4 µM | GI50 (CAKI-1 renal): 5.55 µM | TGI (CAKI-1 renal): > 100 µM | GI50 (IGROV1 ovarian): 7.34 µM | TGI (IGROV1 ovarian): > 100 µM | GI50 (RPMI-8226 leukemia): 3.13 µM | TGI (RPMI-8226 leukemia): 8.7 µM | GI50 (EKVX NSCLC): 45.6 µM | TGI (EKVX NSCLC): > 100 µM | GI50 (HOP-92 NSCLC): 1.66 µM | TGI (HOP-92 NSCLC): 7.06 µM | GI50 (MALME-3M melanoma): 4.68 µM | TGI (MALME-3M melanoma): > 100 µM | GI50 (OVCAR-8 ovarian): 4.79 µM | TGI (OVCAR-8 ovarian): > 100 µM | GI50 (A549 NSCLC): 4.98 µM | TGI (A549 NSCLC): > 100 µM | GI50 (DU-145 prostate): 9.08 µM | TGI (DU-145 prostate): > 100 µM | GI50 (HCC-2998 colon): 4.44 µM | TGI (HCC-2998 colon): 23.8 µM | GI50 (NCI-H226 lung): 7.29 µM | TGI (NCI-H226 lung): > 100 µM | GI50 (BT-549 breast): 5.07 µM | TGI (BT-549 breast): > 100 µM | GI50 (HS 578T breast): 5.32 µM | TGI (HS 578T breast): 48.4 µM | GI50 (OVCAR-4 ovarian): 9.63 µM | TGI (OVCAR-4 ovarian): > 100 µM | GI50 (HCT-15 colon): 2.32 µM | TGI (HCT-15 colon): > 100 µM | GI50 (KM12 colon): 3.39 µM | TGI (KM12 colon): 29.6 µM | GI50 (UACC-62 melanoma): 3.92 µM | TGI (UACC-62 melanoma): > 100 µM | GI50 (MDA-MB-435): 2.1 µM | TGI (MDA-MB-435): > 100 µM | GI50 (NCI-H522 lung): 1.49 µM | TGI (NCI-H522 lung): 5.19 µM | GI50 (NCI-H23 lung): 5.37 µM | TGI (NCI-H23 lung): > 100 µM | GI50 (SF-539 CNS): 3.79 µM | TGI (SF-539 CNS): 46.8 µM | GI50 (SK-MEL-28 melanoma): 5.17 µM | TGI (SK-MEL-28 melanoma): > 100 µM | GI50 (SK-MEL-5 melanoma): 1.71 µM | TGI (SK-MEL-5 melanoma): 4.57 µM | GI50 (SN12C renal): 11.7 µM | TGI (SN12C renal): > 100 µM | GI50 (OVCAR-5 ovarian): 17.7 µM | TGI (OVCAR-5 ovarian): > 100 µM | GI50 (SR leukemia): 3.41 µM | TGI (SR leukemia): > 100 µM | GI50 (SK-MEL-2 melanoma): 7.24 µM | TGI (SK-MEL-2 melanoma): 81 µM | GI50 (SNB-75 CNS): 4.83 µM | TGI (SNB-75 CNS): > 100 µM
